Source: patent publication US20050032873A1, “3-Amino chroman and 2-amino tetralin derivatives” (Wyeth, priority 2003, published 2005)
Read-outs that look alike come from different tables or passages of the source.

Assays:
5-HT1A receptor = biological target: T1, 5-HT1A receptor (Homo sapiens, UniProt P08908); test: 5-HT1A receptor affinity: displacement of [3H] 8-OH-DPAT; format: binding; design: expressed in transfected cells; settings: for inhibition at 1 µM: read-out: 5-HT1A Receptor Affinity, % @ 1 μM; for Ki: displacement of [3H] 8-OH-DPAT, CHO cells stably transfected with human 5-HT1A receptors, read-out: 5-HT1A Receptor Affinity Ki
T1 sequence (P08908 1-422): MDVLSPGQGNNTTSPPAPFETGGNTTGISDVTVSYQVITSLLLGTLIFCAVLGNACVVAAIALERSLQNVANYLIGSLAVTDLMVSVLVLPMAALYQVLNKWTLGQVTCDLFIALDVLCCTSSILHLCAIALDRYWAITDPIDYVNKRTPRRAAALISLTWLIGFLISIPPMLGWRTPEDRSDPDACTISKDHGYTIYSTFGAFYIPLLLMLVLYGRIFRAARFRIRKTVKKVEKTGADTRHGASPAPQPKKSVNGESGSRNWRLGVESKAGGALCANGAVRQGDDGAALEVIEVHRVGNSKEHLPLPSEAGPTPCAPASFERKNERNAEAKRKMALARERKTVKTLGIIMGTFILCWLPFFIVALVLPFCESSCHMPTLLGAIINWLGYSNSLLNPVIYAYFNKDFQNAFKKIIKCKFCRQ

serotonin transporter = biological target: T2, serotonin transporter (Rattus norvegicus, UniProt P31652); test: 5-HT transporter affinity: displacement of 3H-paroxetine from male rat cortical membranes; format: binding; settings: displacement of 3H-paroxetine, male rat cortical membranes
T2 construct: displace ^3H-paroxetine from male rat cortical membranes; from tissue; host or cells: male rat cortical membranes

[1] = biological target: T3, cloned human 5-HT1A receptors (Homo sapiens, UniProt P08908); test: 35S-GTPγS binding assay, 5-HT1A function; format: biochemical; settings: for EC50: agonist potency; for IC50: antagonist potency, reversal of 8-OH-DPAT, read-out: 5-HT1A Function GTPγS IC50
T3 construct: expressed in transfected cells
T3 sequence (P08908 1-422): T1 sequence (P08908 1-422)

[2] = 5-HT Transporter Affinity Ki (nM)
[3] = maximum stimulatory effect, in brackets after EC50, read-out: 5-HT1A Function GTPγS (Emax)
[4] = read-out: 5-HT Transporter Affinity Ki
[5] = maximum inhibitory effect, in brackets after IC50, read-out: 5-HT1A Function GTPγS (Imax)
[6] = maximum inhibitory effect, in brackets after IC50

T2 sequence (P31652 whole entry): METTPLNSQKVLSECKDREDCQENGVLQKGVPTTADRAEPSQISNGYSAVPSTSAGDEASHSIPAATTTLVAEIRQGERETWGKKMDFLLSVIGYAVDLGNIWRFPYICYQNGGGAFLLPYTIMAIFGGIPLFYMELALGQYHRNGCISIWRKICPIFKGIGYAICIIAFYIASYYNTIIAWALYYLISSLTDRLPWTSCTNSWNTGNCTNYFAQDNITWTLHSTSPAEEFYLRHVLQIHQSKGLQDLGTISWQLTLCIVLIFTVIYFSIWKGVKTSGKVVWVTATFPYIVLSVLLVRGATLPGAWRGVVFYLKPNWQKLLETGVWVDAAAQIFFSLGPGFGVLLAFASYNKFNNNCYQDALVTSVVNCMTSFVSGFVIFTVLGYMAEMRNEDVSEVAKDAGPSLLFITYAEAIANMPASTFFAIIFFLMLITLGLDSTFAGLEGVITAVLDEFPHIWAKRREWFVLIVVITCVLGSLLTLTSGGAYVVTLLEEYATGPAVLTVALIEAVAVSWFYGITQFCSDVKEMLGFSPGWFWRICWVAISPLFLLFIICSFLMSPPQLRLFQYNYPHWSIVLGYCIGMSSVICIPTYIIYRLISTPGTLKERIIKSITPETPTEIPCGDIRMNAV

inhibition at 1 µM (5-HT1A receptor) [%]	EC50 [1] [nM]	Emax [1, 3] [%]	Ki (serotonin transporter; [4]) [nM]	IC50 [1] [nM]	Emax [1, 5] [%]	Ki (5-HT1A receptor) [nM]	5-HT1A Function GTPγS (Imax) [1, 6] [%]	SMILES	Ki (serotonin transporter; [2]) [nM]
37	40000	79.4	26					COc1cccc2c1CC(N[C@H]1CC[C@@H](c3c[nH]c4ccc(F)cc43)CC1)CO2 (relative stereo) [Compound 181a, cis-N-[4-(5-fluoro-1H-indol-3-yl)cyclohexyl]-5-methoxychroman-3-amine]	
46			3.07	115	44.6			COc1cccc2c1CC(N[C@H]1CC[C@H](c3c[nH]c4ccc(F)cc43)CC1)CO2 (relative stereo) [Compound 181b, trans-N-[4-(5-fluoro-1H-indol-3-yl)cyclohexyl]-5-methoxychroman-3-amine]	
			65	235		6.35	100	CC(CCc1c[nH]c2c(F)cc(F)cc12)N(CC1CC1)C1COc2c(F)ccc(C(N)=O)c2C1 (single isomer, unassigned) [Compound 154a, 3-{(cyclopropylmethyl)[3-(5,7-difluoro-1H-indol-3-yl)-1-methylpropyl]amino}-8-fluorochromane-5-carboxamide]	
2			4.81	7070			71	CC(CCc1c[nH]c2c(F)cc(F)cc12)N(CC1CC1)C1COc2c(F)ccc(C(N)=O)c2C1 (single isomer, unassigned) [Compound 154d, 3-{(cyclopropylmethyl)[3-(5,7-difluoro-1H-indol-3-yl)-1-methylpropyl]amino}-8-fluorochromane-5-carboxamide]	
48			33.2	9030	100			NC(=O)c1ccc(F)c2c1C[C@@H](NCC1CCc3c([nH]c4ccc(F)cc34)C1)CO2 (single isomer, unassigned; (+)) [Compound 179a]	
49			855	8000			50	NC(=O)c1ccc(F)c2c1CC(N(CC1CCc3[nH]c4ccc(F)cc4c3C1)C1CCC1)CO2 (single isomer, unassigned; (-)) [Compound 174a, (−)-3-{cyclobutyl[(6-fluoro-2,3,4,9-tetrahydro-1H-carbazol-3-yl)methyl]amino}-8-fluorochromane-5-carboxamide]	

Second part, the compound before the results:

SMILES	inhibition at 1 µM (5-HT1A receptor) [%]	EC50 [1] [nM]	Emax [1, 3] [%]	Ki (serotonin transporter; [4]) [nM]	IC50 [1] [nM]	Emax [1, 5] [%]	Ki (5-HT1A receptor) [nM]	5-HT1A Function GTPγS (Imax) [1, 6] [%]	Ki (serotonin transporter; [2]) [nM]
COc1cccc2c1CC(N[C@H]1CC[C@@H](c3c[nH]c4ccc(C#N)cc43)CC1)CO2 (relative stereo) [Compound 180a, 3-[(1,4-cis)-4-(5-Methoxy-chroman-3-ylamino)-cyclohexyl]-1H-indole-5-carbonitrile]	19	4230	100						13
COc1cccc2c1CC(N[C@H]1CC[C@H](c3c[nH]c4ccc(C#N)cc43)CC1)CO2 (relative stereo) [Compound 180b, 3-[(1,4-trans)-4-(5-Methoxy-chroman-3-ylamino)-cyclohexyl]-1H-indole-5-carbonitrile]	20	925	50.5						2.46
CC(C1CC1)N(CCCc1c[nH]c2ccc(F)cc12)C1COc2c(F)ccc(C(N)=O)c2C1 (stereo not shown) [Compound 6, 3-{(1-cyclopropylethyl)[3-(5-fluoro-1H-indol-3-yl)propyl]amino}-8-fluorochromane-5-carboxamide]	30			18.9	4840	87			
O=C(O)c1ccc(F)c2c1CC(N(CCCc1c[nH]c3ccc(F)cc13)C1CCC1)CO2 (stereo not shown) [Compound 56, 3-{cyclobutyl[3-(5-fluoro-1H-indol-3-yl)propyl]amino}-8-fluorochromane-5-carboxylic acid]	4			499	5000	50			
COC(=O)c1ccc(F)c2c1CC(N(CCCCc1c[nH]c3ccc(F)cc13)C1CCC1)CO2 (stereo not shown) [Compound 58, Methyl 3-{cyclobutyl[4-(5-fluoro-1H-indol-3-yl)butyl]amino}-8-fluorochromane-5-carboxylate]		8020	49	35.6			202		
COC(=O)c1ccc(F)c2c1C[C@H](N(CCCCc1c[nH]c3ccc(F)cc13)C1CCC1)CO2 [Compound 58a, Methyl (3S)-3-{cyclobutyl[4-(5-fluoro-1H-indol-3-yl)butyl]amino}-8-fluorochromane-5-carboxylate]	0			46.6	1960	25			
COC(=O)c1ccc(F)c2c1C[C@@H](N(CCCCc1c[nH]c3ccc(F)cc13)C1CCC1)CO2 [Compound 58b, Methyl (3R)-3-{cyclobutyl[4-(5-fluoro-1H-indol-3-yl)butyl]amino}-8-fluorochromane-5-carboxylate]				29.2	626	94	138		
CCCCNC(=O)c1ccc(F)c2c1CC(N(CCCc1c[nH]c3ccc(F)cc13)C1CCC1)CO2 (stereo not shown) [Compound 62, N-butyl-3-{cyclobutyl[3-(5-fluoro-1H-indol-3-yl)propyl]amino}-8-fluorochromane-5-carboxamide]	40			4.55	1900	50			
O=C(NC1CCCC1)c1ccc(F)c2c1CC(N(CCCc1c[nH]c3ccc(F)cc13)C1CCC1)CO2 (stereo not shown) [Compound 66, 3-{cyclobutyl[3-(5-fluoro-1H-indol-3-yl)propyl]amino}-N-cyclopentyl-8-fluorochromane-5-carboxamide]	41	7500	38	5.65					
O=C(NC1CCCCC1)c1ccc(F)c2c1CC(N(CCCc1c[nH]c3ccc(F)cc13)C1CCC1)CO2 (stereo not shown) [Compound 67, 3-{cyclobutyl[3-(5-fluoro-1H-indol-3-yl)propyl]amino}-N-cyclohexyl-8-fluorochromane-5-carboxamide]	44			19.8	1970	76			
O=C(NCC1CC1)c1ccc(F)c2c1CC(N(CCCc1c[nH]c3ccc(F)cc13)C1CCC1)CO2 (stereo not shown) [Compound 68, 3-{cyclobutyl[3-(5-fluoro-1H-indol-3-yl)propyl]amino}-N-(cyclopropylmethyl)-8-fluorochromane-5-carboxamide]				4.4	1300	50	161		
O=C(Nc1ccccc1)c1ccc(F)c2c1CC(N(CCCc1c[nH]c3ccc(F)cc13)C1CCC1)CO2 (stereo not shown) [Compound 70, 3-{cyclobutyl[3-(5-fluoro-1H-indol-3-yl)propyl]amino}-8-fluoro-N-phenylchromane-5-carboxamide]	36	1800	22	37.2					
CCCCCN(CCCc1c[nH]c2ccc(F)cc12)C1COc2c(F)ccc(C(N)=O)c2C1 (stereo not shown) [Compound 71, 8-fluoro-3-[[3-(5-fluoro-1H-indol-3-yl)propyl](pentyl)amino]chromane-5-carboxamide]	44			212	8000	13			
NC(=O)c1ccc(F)c2c1CC(NCCc1c[nH]c3ccc(F)cc13)CO2 (stereo not shown) [Compound 75, 8-fluoro-3-{[2-(5-fluoro-1H-indol-3-yl)ethyl]amino}chromane-5-carboxamide]	0			1030	2150	40			
NC(=O)c1ccc(F)c2c1CC(NCCCCc1c[nH]c3ccc(F)cc13)CO2 (stereo not shown) [Compound 79, 8-fluoro-3-{[4-(5-fluoro-1H-indol-3-yl)butyl]amino}chromane-5-carboxamide]	43			4.46	2660	63			
CCN(CCc1c[nH]c2ccc(F)cc12)C1COc2c(F)ccc(C(=O)NC)c2C1 (stereo not shown) [Compound 85, 3-{ethyl[2-(5-fluoro-1H-indol-3-yl)ethyl]amino}-8-fluoro-N-methylchromane-5-carboxamide]	46				3580	72			35.4
CNC(=O)c1ccc(F)c2c1CC(NCCCc1c[nH]c3ccc(F)cc13)CO2 (stereo not shown) [Compound 88, 8-fluoro-3-{[3-(5-fluoro-1H-indol-3-yl)propyl]amino}-N-methylchromane-5-carboxamide]		1780	94	12.2			54.6		
CCN(CCCc1c[nH]c2ccc(F)cc12)C1COc2c(F)ccc(C(=O)NC)c2C1 (stereo not shown) [Compound 89, 3-{ethyl[3-(5-fluoro-1H-indol-3-yl)propyl]amino}-8-fluoro-N-methylchromane-5-carboxamide]		110	62	1.08			21.2		
CNC(=O)c1ccc(F)c2c1CC(NCCCCc1c[nH]c3ccc(F)cc13)CO2 (stereo not shown) [Compound 92, 8-fluoro-3-{[4-(5-fluoro-1H-indol-3-yl)butyl]amino}-N-methylchromane-5-carboxamide]	47	1170	50	7.95					
